Tested on: Sprague-Dawley male rats
Conditions: rat, in vivo

Row | Compound | 50% withdrawal threshold, mechanical stimulus
1 | CSCC[C@@H]1NC(=O)[C@H](CC(C)C)NC(=O)[C@H](CCCNC(=N)N)NC(=O)[C@H](CO)NC(=O)[C@@H]2CSSC[C@@H]3NC(=O)[C@H](CO)NC(=O)CNC(=O)[C@H]([C@@H](C)O)NC(=O)[C@H](CSSC[C@H](N)C(=O)N[C@@H](CCCCN)C(=O)NCC(=O)N[C@@H](CCCCN)C(=O)NCC(=O)N[C@@H](C)C(=O)N[C@@H](CCCCN)C(=O)N2)NC(=O)[C@H](CSSC[C@@H](C(N)=O)NC(=O)[C@H](CCCCN)NC(=O)CNC(=O)[C@H](CO)NC(=O)[C@H](CCCNC(=N)N)NC3=O)NC(=O)[C@H](CC(=O)O)NC(=O)[C@H](Cc2ccc(O)cc2)NC1=O [MVIIA, CKGKGAKCSRLMYDCCTGSCRSGKC-NH2] | increase in 50% withdrawal threshold
2 | CC[C@H](C)[C@@H]1NC(=O)[C@H](CCCNC(=N)N)NC(=O)[C@H](CO)NC(=O)[C@@H]2CSSC[C@@H]3NC(=O)[C@H](CO)NC(=O)CNC(=O)[C@H]([C@@H](C)O)NC(=O)[C@H](CSSC[C@H](N)C(=O)N[C@@H](CCCCN)C(=O)NCC(=O)N[C@@H]([C@@H](C)O)C(=O)NCC(=O)N[C@@H](CCCCN)C(=O)N[C@@H](CO)C(=O)N2)NC(=O)[C@H](CSSC[C@@H](C(N)=O)NC(=O)[C@H](CCCCN)NC(=O)CNC(=O)[C@H](CO)NC(=O)[C@H](CCCNC(=N)N)NC3=O)NC(=O)[C@H](CC(N)=O)NC(=O)[C@H](Cc2ccc(O)cc2)NC(=O)[C@H](C)NC1=O [FVIA, CKGTGKSCSRIAYNCCTGSCRSGKC-NH2] | increase in 50% withdrawal threshold

Source: patent publication US8673856B2 (Anygen Co., Ltd., priority 2006, dated 2014)
